Five molecules from PMC11740726 (PNAS Nexus, 2025) can be followed below.

Values joined by “and” are separate entries in the source; they are usually repeats but may differ in a detail not shown here. Equal entries are not always repeated. Where two headings read alike, the source gives them in different places.

The test system of one assay is SARS-CoV-2 Omicron XBB. Put plainly: microbe, parasite or virus in culture. The note with it: Severe acute respiratory syndrome coronavirus 2, read-out: Against SARS-CoV-2 variants EC50, Omicron XBB. The format is cell-based.
Assay [1] deals with six various Omicron variants (BA.5, BA.2.75, BQ.1.1, XBB, XBB.1.5, and EG.5.1). Put plainly: microbe, parasite or virus in culture. In kind it is cell-based, SARS-CoV-2. The note with it: Severe acute respiratory syndrome coronavirus 2, read-out: EC50 values ranging over all six Omicron variants.
The next assay relates to SARS-CoV-2 Omicron BA.5. The assay can be described thus: microbe, parasite or virus in culture. The format is cell-based. The note with it: Severe acute respiratory syndrome coronavirus 2, read-out: Against SARS-CoV-2 variants EC50, Omicron BA.5.
In assay [2] the test system is SARS-CoV-2 Omicron BA.2.75. Put plainly: microbe, parasite or virus in culture. The following applies: Severe acute respiratory syndrome coronavirus 2, read-out: Against SARS-CoV-2 variants EC50, Omicron BA.2.75. In kind it is cell-based.
In another assay the test system is SARS-CoV-2^BQ.1.1. Put plainly: microbe, parasite or virus in culture. The following applies: Severe acute respiratory syndrome coronavirus 2, read-out: Against SARS-CoV-2 variants EC50, Omicron BQ.1.1. In kind it is cell-based.
Assay [3] deals with SARS-CoV-2 Omicron XBB.1.5. The assay can be described thus: microbe, parasite or virus in culture. The following applies: Severe acute respiratory syndrome coronavirus 2, read-out: Against SARS-CoV-2 variants EC50, Omicron XBB.1.5. In kind it is cell-based.
The subject of assay [4] is SARS-CoV-2^E166V-P14. The format is cell-based. The following applies: read-out: EC50, SARS-CoV-2^E166V-P14, VeroE6 +2μM CP-100356.
The subject of assay [5] is SARS-CoV-2 Omicron EG.5.1. Put plainly: microbe, parasite or virus in culture. The format is cell-based. The note with it: Severe acute respiratory syndrome coronavirus 2, read-out: Against SARS-CoV-2 variants EC50, Omicron EG.5.1.
In assay [6] the test system is SARS-CoV-2^E166V-P14. In kind it is cell-based. The following applies: read-out: EC50, SARS-CoV-2^E166V-P14, HeLa^hACE2-TMPRSS2.
For a further assay, the system named is rgSARS-CoV-2^E166V. The format is cell-based, SARS-CoV-2. The following applies: read-out: EC50, rgSARS-CoV-2^E166V, VeroE6 +2μM CP-100356.
In the next assay the test system is rgSARS-CoV-2^WT. The assay can be described thus: microbe, parasite or virus in culture. The note with it: Severe acute respiratory syndrome coronavirus 2, Vero C1008, read-out: EC50, rgSARS-CoV-2^WT, VeroE6 +2μM CP-100356. The format is cell-based.

On to `Cn1cnc(Cn2c(=O)[nH]/c(=N\c3cc4cn(C)nc4cc3Cl)n(Cc3cc(F)c(F)cc3F)c2=O)n1` [Ensitrelvir, reference compound], for which the EC50 with SARS-CoV-2 Omicron XBB was 60 ± 20 nM; in assay [1], 60 to 220 nM; in the assay with SARS-CoV-2 Omicron BA.5 it was 200 ± 40 nM; in assay [2] it was 140 ± 60 nM; with SARS-CoV-2^BQ.1.1 it was 70 ± 20 nM; in assay [3] it was 220 ± 90 nM. The values for the EC50 (with SARS-CoV-2^E166V-P14 [4]; in [5]) were 540 nM and 210 ± 90 nM, respectively.
As for `CC(C)C(=O)OC[C@H]1O[C@@H](n2ccc(NO)nc2=O)[C@H](O)[C@@H]1O` [molnupiravir, reference compound], in the assay with SARS-CoV-2^E166V-P14 [4], the EC50 worked out at 750 nM.
For the molecule `CC(C)(C)[C@H](NC(=O)C(F)(F)F)C(=O)N1C[C@H]2[C@@H]([C@H]1C(=O)N[C@H](C#N)C[C@@H]1CCNC1=O)C2(C)C` [Nirmatrelvir, reference compound], the EC50 in the assay with SARS-CoV-2^E166V-P14 [6] is 1420 nM; in assay [1], 20 to 750 nM; with SARS-CoV-2 Omicron BA.5 it was 750 ± 220 nM; in [2], 300 ± 220 nM; in the assay on SARS-CoV-2^BQ.1.1 it was 50 ± 20 nM; in assay [3], 210 ± 280 nM. Also, the EC50 in the assay on rgSARS-CoV-2^E166V was 1300 nM; in assay [5] it was 130 ± 20 nM; in the assay with rgSARS-CoV-2^WT, 26 ± 5 nM.
Regarding `CC(C)(C)[C@H](NC(=O)C(F)(F)F)C(=O)N1C[C@H]2[C@@H]([C@H]1C(=O)N[C@@H](C[C@@H]1CCNC1=O)C(=O)c1nc3c(F)cccc3s1)C2(C)C` [TKB245], the 50% effective concentration (EC50) in the assay with SARS-CoV-2 Omicron XBB was 6 ± 3 nM; in assay [1], 6 to 38 nM; in the assay on SARS-CoV-2 Omicron BA.5, 23 ± 9 nM; in assay [2], 27 ± 3 nM; in assay [3] it was 35 ± 18 nM; in [5], 9 ± 1 nM.
Turning to `CC(C)(C)[C@H](NC(=O)C(F)(F)F)C(=O)N1C[C@H]2[C@@H]([C@H]1C(=O)N[C@@H](C[C@@H]1CCNC1=O)C(=O)c1nc3cc(F)ccc3s1)C2(C)C` [TKB272], the EC50 in the assay with SARS-CoV-2^E166V-P14 [6] is 51.3 nM and 51 nM; with SARS-CoV-2 Omicron XBB, 3 ± 1 nM; in assay [1], 3 to 8 nM; with SARS-CoV-2 Omicron BA.5, 8 ± 1 nM; in [2], 6 ± 3 nM; in the assay with SARS-CoV-2^BQ.1.1 it was 3 ± 1 nM. In addition, the EC50 in assay [3] amounted to 5 ± 2 nM; in the assay on rgSARS-CoV-2^E166V, 22 nM; in [5] it was 7 ± 1 nM; in the assay on rgSARS-CoV-2^WT, 3 nM.
